Converted amounts (≈) assume the structure as drawn. Where two headings read alike, the source gives them in different places.
What was measured:
[1] = test system: P388 murine leukemia cells; assay: MTT cytotoxicity test on P388 murine leukemia cells (Table 1); type: cell-based; details: 3 days
Experimental: P388 murine leukemia cells were spread over a 96-well microplate, 2.5×10^3 cells per well. A sample to be tested was added after 24 hours. Cells were cultivated under the conditions of 5% CO2 at 37° C. for 3 days. 3-(4,5-Dimethylthiazol-2-yl)-2,5-diphenyl-2H-tetrazolium bromide (MTT) was added 4 hours after the addition of the sample. Upon the addition of […] of isopropyl alcohol containing 0.04N HCl the absorption at 540 nm was measured to determine IC50.

Acute toxicity in mice = type: in vivo; details: i.v., male BALB/c mice, survival on day 14, Probit method
Experimental: Groups of 5 male BALB/c mice were administered intravenously with several doses of drugs, and their survivals from death were recorded up to day 14. The 10 and 50% lethal doses (LD10 and LD50) were calculated form the survival rate on day 14 by the Probit method.

MCF-7 (Breast) = assay: In vitro anti-proliferative activity, MCF-7 (Table 2-2); type: cell-based; details: Homo sapiens, MCF7, 72 h, read-out: in vitro anti-proliferative activity (Gl50)
Experimental: (§1) In vitro anti-proliferative activities of the drugs against 4 human and 1 murine cell lines were measured by the MTT assay (see page 11 of the parent specification) after 3 days incubation, and expressed as the doses required to inhibit growth of 50% cells cultivated (Gl50, ng/ml).

MKN28 (Stomach) = assay: In vitro anti-proliferative activity, MKN28 (Table 2-2); type: cell-based; details: Homo sapiens, MKN-28, 72 h, read-out: in vitro anti-proliferative activity (Gl50)
Experimental: as §1

HOC-21 (Ovary) = assay: In vitro anti-proliferative activity, HOC-21 (Table 2-2); type: cell-based; details: Homo sapiens, read-out: in vitro anti-proliferative activity (Gl50)
Experimental: as §1

Meth A fibrosarcoma = assay: In vivo anti-tumor activity, Meth A fibrosarcoma in BALB/c mice (Table 3); details: i.v.; for Death Nos.: qd×4; for Tumor cell anti-proliferative activity: qd×4 (days 5-8), day 14
Experimental: In vivo anti-tumor activities of drugs were assayed with Meth A fibrosarcoma in BALB/c mice. Mice were treated intravenously with several doses of drugs on days 5, 6, 7, and 8 (qd×4) after hypodermic tumor implantation, and the weight of the tumor masses measured on day 14. The anti-tumor activities of drugs against the tumor were expressed as the relative tumor weight of controls (%).

QG90 (Lung) = assay: In vitro anti-proliferative activity, QG90 (Table 2-2); type: cell-based; details: Homo sapiens, QG-90, 72 h, read-out: in vitro anti-proliferative activity (Gl50)
Experimental: as §1

[2] = test system: 4 human and 1 murine cell lines; assay: In vitro anti-proliferative activity, mean over the cell lines (Table 2-2); type: cell-based; details: read-out: in vitro anti-proliferative activity (Gl50), MEAN
Experimental: as §1

p388 (Mouse leukemia) = assay: In vitro anti-proliferative activity, p388 (Table 2-2); type: cell-based; details: read-out: in vitro anti-proliferative activity (Gl50)
Experimental: as §1

nucleic acid synthesis = details: background statement; cited from earlier work
[3] = clinical tests in the United States; cited from earlier work
topoisomerase I = biological target: T1, topoisomerase I (Mus musculus, UniProt Q04750); assay: Topoisomerase I assay, relaxation of supercoiled SV40 DNA; type: biochemical, p388 mouse leukemia
T1 construct: Topoisomerase I was prepared from p388 mouse leukemia; endogenous in cells; host or cells: P388 mouse leukemia
T1 sequence (Q04750 1-767): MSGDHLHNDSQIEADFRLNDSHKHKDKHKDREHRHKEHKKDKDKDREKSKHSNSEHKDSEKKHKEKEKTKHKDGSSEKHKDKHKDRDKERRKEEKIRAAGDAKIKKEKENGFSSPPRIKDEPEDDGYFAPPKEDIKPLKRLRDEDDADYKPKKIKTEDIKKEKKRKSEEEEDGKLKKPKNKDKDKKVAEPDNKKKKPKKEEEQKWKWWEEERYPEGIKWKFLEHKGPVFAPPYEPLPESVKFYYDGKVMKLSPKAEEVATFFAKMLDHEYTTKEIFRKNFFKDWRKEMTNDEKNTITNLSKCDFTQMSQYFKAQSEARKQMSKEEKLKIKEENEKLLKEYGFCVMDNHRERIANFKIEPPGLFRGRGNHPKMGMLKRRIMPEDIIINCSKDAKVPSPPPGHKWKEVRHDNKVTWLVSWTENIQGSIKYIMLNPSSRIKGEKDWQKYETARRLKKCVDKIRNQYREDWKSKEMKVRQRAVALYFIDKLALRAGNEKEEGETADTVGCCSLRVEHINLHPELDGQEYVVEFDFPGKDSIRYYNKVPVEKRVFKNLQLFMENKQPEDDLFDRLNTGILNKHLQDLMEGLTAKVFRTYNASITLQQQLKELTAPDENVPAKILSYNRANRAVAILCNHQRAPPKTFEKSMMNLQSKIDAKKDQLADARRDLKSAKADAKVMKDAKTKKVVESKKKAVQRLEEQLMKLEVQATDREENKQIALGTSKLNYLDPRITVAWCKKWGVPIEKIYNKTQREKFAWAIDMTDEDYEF
Experimental: Topoisomerase I was prepared from p388 mouse leukemia. One unit (the minimum amount of full relaxation of 0.5 μg SV40 DNA) of topoisomerase I,
0.5 μl of the test compounds, and 0.5 μg of SV40 DNA were added sequentially to the reaction buffer. The reaction mixture (50 μl) was incubated for 10 min and 37° C. and analyzed by electrophoresis, the gel was stained with 0.05% ethydium bromide and photographed with UV light. The DNA was quantified using a densitometor. The inhibition rate of the topoisomerase activity was calculated as [formula] where Frt and Frc are ratios of relaxed DNA to total DNA treated with topoisomerase in the presence and absence of the test drug, respectively. Fr is the proportion of relaxed DNA in untreated DNA. The IC50 of each test drug was estimated from the dose-response.

[4] = test system: QG56 (human lung cancer cells); assay: MTT method, activity on QG56 cells (Table 2-1); type: cell-based; details: QG-56, 72 h
Experimental: (§2) See page 11 of the parent specification. In detail, p388 murine leukemia cells, MKN 28 (human stomach cancer cells), QG56 (human lung cancer cells) and HOC21 (human ovarian cancer cells) were provided. The cells were spread over a 96-well microplate, respectively, and a sample to be tested was added to each of them after 24 hours. Cells were cultivated under the conditions of 5% CO2 at 37° C. for 3 days.
(§3) 3-(4,5-Dimethylthiazol-2-yl)-2,5-diphenyl-2H-tetrazolium bromide (abbriviated as MTT) was added thereto 4 hours after the addition of the sample. Upon the addition of […] of isopropyl alcohol containing 0.04N HCl, the absorption at 540 nm was measured To determine IC50.

[5] = test system: MKN 28 (human stomach cancer cells); assay: MTT method, activity on MKN28 cells (Table 2-1); type: cell-based; details: MKN-28, 72 h
Experimental: as §2, §3

[6] = test system: HOC21 (human ovarian cancer cells); assay: MTT method, activity on HOC21 cells (Table 2-1); type: cell-based; details: HOC-21, 72 h
Experimental: as §2, §3

[7] = test system: P388 murine leukemia cells; assay: MTT method, activity on p388 cells (Table 2-1); type: cell-based; details: Mus musculus
Experimental: as §2, §3

[8] = MCF-7 (Breast), MTT, 3 days incubation
[9] = MKN28 (Stomach), MTT, 3 days incubation
[10] = 72 h, HOC-21 (Ovary), MTT, 3 days incubation
[11] = QG90 (Lung), MTT, 3 days incubation
[12] = 72 h, p388 (Mouse leukemia), MTT, 3 days incubation

Structure (SMILES): CC[C@@]1(O)C(=O)OCc2c1cc1n(c2=O)Cc2c-1nc1cccc3c1c2C(N)CC3.Cl (single isomer, unassigned) [Example 2 (Isomer A)]
- IC50 ([1]; hydrochloride): 3.38 ng/mL

Structure (SMILES): CC[C@@]1(O)C(=O)OCc2c1cc1n(c2=O)Cc2c-1nc1ccc(OC)c3c1c2CCC3N.Cl (single isomer, unassigned) [Example 7 (Isomer B)]
- IC50 ([1]; hydrochloride): 11.90 ng/mL

Structure (SMILES): CC[C@@]1(O)C(=O)OCc2c1cc1n(c2=O)Cc2c-1nc1ccc(OC)c3c1c2C(N)CC3.Cl (single isomer, unassigned) [Example 4 (Isomer A)]
- IC50 ([1]; hydrochloride): 9.21 ng/mL

Structure (SMILES): CCc1c2c(nc3ccc(OC(=O)N4CCC(N5CCCCC5)CC4)cc13)-c1cc3c(c(=O)n1C2)COC(=O)[C@]3(O)CC [CPT-11, irinotecan]
- LD10 (Acute toxicity in mice): 198 mg/m^2
- LD50 (Acute toxicity in mice): 270 mg/m^2
- IC50 (MCF-7 (Breast); [8]): 1200 ng/mL (≈ 2.04 µM)
- IC50 (MKN28 (Stomach); [9]): 8690 ng/mL (≈ 14.8 µM)
- IC50 (HOC-21 (Ovary); [10]): 15100 ng/mL (≈ 25.7 µM)
- Death Nos. (Meth A fibrosarcoma; total dose 25 mg/kg): 0/6
- Tumor cell anti-proliferative activity (Meth A fibrosarcoma; total dose 25 mg/kg): 31.4%
- Death Nos. (Meth A fibrosarcoma; total dose 50 mg/kg): 0/6
- Tumor cell anti-proliferative activity (Meth A fibrosarcoma; total dose 50 mg/kg): 53.3%
- Death Nos. (Meth A fibrosarcoma; total dose 100 mg/kg): 0/6
- Tumor cell anti-proliferative activity (Meth A fibrosarcoma; total dose 100 mg/kg): 62.3%
- Death Nos. (Meth A fibrosarcoma; total dose 200 mg/kg): 0/6
- Tumor cell anti-proliferative activity (Meth A fibrosarcoma; total dose 200 mg/kg): 79.4%
- IC50 (QG90 (Lung); [11]): 1550 ng/mL (≈ 2.65 µM)
- IC50 ([2]; mean of the 5 cell lines): 5870 ng/mL (≈ 10 µM)
- IC50 (p388 (Mouse leukemia); [12]): 2850 ng/mL (≈ 4.86 µM)

Structure (SMILES): CC[C@@]1(O)C(=O)OCc2c1cc1n(c2=O)Cc2c-1nc1ccc(OC)c3c1c2CCC3N.Cl (single isomer, unassigned) [Example 7 (Isomer A)]
- IC50 ([1]; Mus musculus, P388, 72 h, read-out: IC50): 11.4 ng/mL

Structure (SMILES): CC[C@@]1(O)C(=O)OCc2c1cc1n(c2=O)Cc2cc3ccccc3nc2-1 [camptohecin, camptothecin]
- antitumor activity (nucleic acid synthesis): exhibit an antitumor activity
- safety in clinical tests [3]: problem in view of safety
- IC50 (topoisomerase I): 43.9 µM

Structure (SMILES): CC[C@@]1(O)C(=O)OCc2c1cc1n(c2=O)Cc2c-1nc1ccc(OC)c3c1c2C(N)CC3.Cl (single isomer, unassigned) [Example 4 (Isomer B)]
- IC50 ([1]; hydrochloride): 27.80 ng/mL

Structure (SMILES): CC[C@@]1(O)C(=O)OCc2c1cc1n(c2=O)Cc2c-1nc1cccc3c1c2C(N)CC3.Cl (single isomer, unassigned) [Example 2 (Isomer B)]
- IC50 ([1]; hydrochloride): 12.40 ng/mL

Structure (SMILES): CCc1c2c(nc3ccc(O)cc13)-c1cc3c(c(=O)n1C2)COC(=O)[C@]3(O)CC [SN-38, 7Ethyl-10-hydroxycamptothecin]
- IC50 ([4]; QG56, MTT, 3 days, read-out: IC50): 2.46 ng/mL (≈ 0.00627 µM)
- IC50 ([5]; MKN28, MTT, 3 days, read-out: IC50): 61 ng/mL (≈ 0.155 µM)
- IC50 (MCF-7 (Breast); [8]): 0.49 ng/mL (≈ 0.00125 µM)
- IC50 (MKN28 (Stomach); [9]): 21.7 ng/mL (≈ 0.0552 µM)
- IC50 ([6]; HOC21, MTT, 3 days, read-out: IC50): 53.2 ng/mL (≈ 0.136 µM)
- IC50 ([7]; 72 h, p388, MTT, 3 days, read-out: IC50): 1.33 ng/mL (≈ 0.00339 µM)
- IC50 (HOC-21 (Ovary); [10]): 21.4 ng/mL (≈ 0.0544 µM)
- IC50 (topoisomerase I; SV40 DNA, 10 min, 37° C., read-out: Inhibition of topoisomerase I-induced relaxation of supercoiled DNA (IC50) (converted)): 3.57 µM
- IC50 (QG90 (Lung); [11]): 1.43 ng/mL (≈ 0.00364 µM)
- IC50 ([2]; mean of the 5 cell lines): 9.63 ng/mL (≈ 0.0245 µM)
- IC50 (p388 (Mouse leukemia); [12]): 3.22 ng/mL (≈ 0.00821 µM)

Structure (SMILES): CC[C@@]1(O)C(=O)OCc2c1cc1n(c2=O)Cc2c-1nc1cc(F)c(C)c3c1c2C(N)CC3.Cl (stereo partly drawn) [DX-8951, (9S)-1-amino-9-ethyl-5-fluoro-2,3-dihydro-9-hydroxy-4-methyl-1H,12H-benzo[de]pyrano[3',4':6,7]indolizino[1,2-b]quinoline-10,13(9H,15H)-dione hydrochloride]
- LD10 (Acute toxicity in mice): 228 mg/m^2
- LD50 (Acute toxicity in mice): 270 mg/m^2
- IC50 [4]: 0.67 ng/mL
- IC50 [5]: 9.4 ng/mL
- IC50 (MCF-7 (Breast)): 0.16 ng/mL
- IC50 (MKN28 (Stomach)): 1.75 ng/mL
- IC50 [6]: 12.8 ng/mL
- IC50 ([7]; P388, 72 h): 0.58 ng/mL
- IC50 (HOC-21 (Ovary); HOC-21, 72 h): 3.67 ng/mL
- IC50 (topoisomerase I): 1.12 µM
- Death Nos. (Meth A fibrosarcoma; total dose 1.875 mg/kg): 0/6
- Tumor cell anti-proliferative activity (Meth A fibrosarcoma; total dose 1.875 mg/kg): 72.5%
- Death Nos. (Meth A fibrosarcoma; total dose 3.75 mg/kg): 0/6
- Tumor cell anti-proliferative activity (Meth A fibrosarcoma; total dose 3.75 mg/kg): 78.3%
- Death Nos. (Meth A fibrosarcoma; total dose 7.5 mg/kg): 0/6
- Tumor cell anti-proliferative activity (Meth A fibrosarcoma; total dose 7.5 mg/kg): 87.5%
- Death Nos. (Meth A fibrosarcoma; total dose 15 mg/kg): 0/6
- Tumor cell anti-proliferative activity (Meth A fibrosarcoma; total dose 15 mg/kg): 96.6%
- Death Nos. (Meth A fibrosarcoma; total dose 30 mg/kg): 2/6
- Tumor cell anti-proliferative activity (Meth A fibrosarcoma; total dose 30 mg/kg): 96.4%
- IC50 (QG90 (Lung)): 0.66 ng/mL
- IC50 [2]: 1.46 ng/mL
- IC50 (p388 (Mouse leukemia); Mus musculus, P388, 72 h): 1.06 ng/mL
